Measured values reported in patent publication US11076597B2, “High stress resistant plant growth regulator and preparation method and use thereof” (SHANGHAI INSTITUTES FOR BIOLOGICAL SCIENCES, CHINESE …, priority 2015, dated 2021).
Entries after “also recorded” stand apart in the source; their conditions may differ.

Columns and labels:
[1] = system: soybean; test: Leaf transpiration experiment, soybean; assay type: in vivo; settings: 20 μM spray 14 days after sowing, two days after spraying; FIG. 5
Method: (§1) ABA synthesis mutant aba2-1 was used in Arabidopsis leaf transpiration experiment. […] Therefore, this mutant is used to exclude the effect of endogenous ABA on the transpiration experiment. The plants were sprayed with a solution containing 0.05% tween-20 and corresponding concentrations of (+)-ABA/0224/0304/0706/0715/0428 or 0.05% Tween-20 and 0.05% DMSO (control) after three weeks of continuous watering with an amount of 1.2 ml/pot. Leaf transpiration experiments of soybeans were conducted at 26° C. with long-day lighting and soybeans were sprayed with a solution containing 0.1% tween-20 and 20 μM (+)-ABA/0224/0304 compound or 0.1% Tween-20 and 0.05% DMSO (control) 14 days after sowing with an amount of 4 ml/pot; the leaf transpiration experiments of cottons were sprayed with a solution containing 0.1% tween-20 and 20 μM (+)-ABA/0224 compound or 0.1% Tween-20 and 0.05% DMSO, respectively, 25 days after sowing with an amount of 4 ml/pot; the leaf transpiration experiments of wheats were sprayed with a solution containing 0.1% tween-20 and 100 μM (+)-ABA/0224 compound or 0.1% Tween-20 and 0.05% DMSO (control) 18 days after sowing with an amount of 6 ml/pot. Images were taken daily using the FLIR A655sc thermal imager at the same time before and after spraying.
In this experiment, the temperature change of leaf surface was observed and recorded by an infrared camera, thus reflecting the strength of plant transpiration. The stronger the transpiration, the lower the leaf temperature.

[2] = system: soybean GmPYL6 + Arabidopsis AtHAB1; test: AlphaScreen assay: promotion of the interaction of soybean GmPYL6 with Arabidopsis HAB1; assay type: binding, soybean (GmPYL6); Arabidopsis thaliana (HAB1); settings: FIG. 13a; 6×His-SUMO-tagged soybean GmPYL6, Biotin-tagged Arabidopsis HAB1 (aa 172-511), 100 nM each; pH 7.4; 1.5 h room temperature
Method: After incubating for 1.5 hours at room temperature in the dark, it was placed into an Envision Plate Reader (available from Perkin Elmer) under the programmed AlphaScreen procedure for readings.

[3] = system: wheat; test: Leaf transpiration experiment, wheat; assay type: in vivo; settings: 100 μM spray 18 days after sowing, one day after spraying; FIG. 16
Method: as §1, with “Images were taken daily using the FLIR A655sc thermal imager at the same time before and after spraying.” left out
(§2) In this experiment, the temperature change of leaf surface was observed and recorded by an infrared camera, thus reflecting the strength of plant transpiration. […]

[4] = system: cotton; test: Leaf transpiration experiment, cotton; assay type: in vivo; settings: 20 μM spray 25 days after sowing, two days after spraying; FIG. 6
Method: as §1, with “Images were taken daily using the FLIR A655sc thermal imager at the same time before and after spraying.” left out
as §2

[5] = system: wheat; test: Soil drought experiment, wheat; assay type: in vivo; settings: 100 μM sprayed once every 3 days; 6 days of drought; FIG. 17
Method: Soybean, cotton and wheat for leaf transpiration experiments were used simultaneously for soil drought experiments, each pot was filled with the same weight of soil to reduce experimental error. All the soybean plants were subjected to a long-day culture at 26° C. 14 days after sowing, watering was stopped and the plants with the consistent growth condition were selected for drought treatment. At the start of the drought, a solution containing 0.1% Tween-20 and 20 μM (+)-ABA/0224/0304 or 0.1% Tween-20 and 0.05% DMSO (control) was sprayed onto the leaf surface once with a spray amount of 4 ml solution/pot. Meanwhile, the position of the pot was changed and re-watered 6 days after the drought, and the photos were taken 1 day after re-watering. The drought experiment of cotton was similar to that of soybeans, watering was stopped 25 days after sowing, the plants with the consistent growth condition were selected for drought treatment. At the start of the drought, a solution containing 0.1% Tween-20 and 20 μM (+)-ABA/0224 or 0.1% Tween-20 and 0.05% DMSO (control) was sprayed onto the leaf surface once with a spray amount of 4 ml solution/pot, and then sprayed once every 3 days. Meanwhile, the position of the pot was changed and re-watered 6 days after the drought, and the photos were taken before re-watering and 1 day after re-watering. […]

[6] = system: Arabidopsis thaliana Col-0 ecotype seeds; test: Seed germination, Col-0 ecotype; assay type: in vivo
Method: Take the compounds 0428 and 0224 of the present invention as examples. The seeds of Arabidopsis thaliana Col-0 ecotype and PYL receptor triple mutant (pyr1;pyl1;pyl4) were sterilized with NaClO and placed at 4° C. for 3 days of the vernalization, and then sown in ½ MS solid medium containing 1 μM (+)-ABA/0224 compound or 0.05% DMSO (control) or in ½ MS solid medium containing 2 μM (+)-ABA/compound 0428 of the present invention or 0.05% DMSO (control). Two lines of plant were sown simultaneously on each medium of 6 cm diameter, with 15-20 seeds sown for each line and 4 replicates for each compound. Culture medium was placed at 22° C. with long-day culture. The seeds germinated on a solid medium containing 1 μM (+)-ABA/0224 compound were photographed 6 days after sowing, and seeds germinated on solid medium containing 2 μM (+)-ABA/0428 compound were photographed 9 days after sowing.

SMILES	leaf temperature versus DMSO control (leaf transpiration) [1]	EC50 [2]	leaf temperature versus DMSO control (leaf transpiration) [3]	leaf temperature versus DMSO control (leaf transpiration) [4]	growth after drought [5]	inhibition of seed germination of Col-0 ([6]; 1 μM in 1/2 MS solid medium, 6 days after sowing, FIG. 3)	inhibition of seed germination of Col-0 ([6]; 2 μM in 1/2 MS solid medium, 9 days after sowing, FIG. 15)
CC1=CC(=O)CC(C)(C)[C@@]1(O)/C=C/C(C)=C\C(=O)O [ABA, Abscisic Acid, reference compound]	had no difference from that in the control group	88.4 nM	still significant higher than that of plants in DMSO-sprayed control group	had no difference from that in the control group	significantly better than that in the control group (DMSO); also recorded: remained upright		
CCCN1C(=O)OC(C)c2cc(NS(=O)(=O)Cc3c(F)c(F)c(C)c(F)c3F)ccc21 (stereo not shown) [Compound 0224]	significantly reduce the transpiration rate of soybean leaf; also recorded: still significant higher than that of plants in DMSO-sprayed control group		significantly reduce the transpiration rate of the wheat leaf; also recorded: still significant higher than that of plants in DMSO-sprayed control group	significantly reduce the transpiration rate of the cotton leaf; also recorded: still significant higher than that of plants in DMSO-sprayed control group	significantly better than that in the control group (DMSO); also recorded: remained upright	can inhibit the seed germination of Col-0; also recorded: could inhibit the seed germination of Col-0 ecotype	
CCCN1C(=O)OC(C)(C)c2cc(NS(=O)(=O)Cc3c(F)c(F)c(C)c(F)c3F)ccc21 [Compound 0304]	significantly reduce the transpiration rate of soybean leaf; also recorded: still significant higher than that of plants in DMSO-sprayed control group						
CCCN1C(=O)OCc2cc(NS(=O)(=O)Cc3c(F)c(F)c(C)c(F)c3F)ccc21 [Compound 0428]		6.28 nM					can inhibit the seed germination of the Col-0; also recorded: could inhibit the seed germination of Col-0 ecotype
